In patent US6331570A, “Active enantiomer of RARγ-specific agonist” (Bristol-Myers Squibb Company, priority 1999, dated 2001):

Columns and labels:
papillomas = assay: two-stage system of mouse skin carcinogenesis (DMBA initiator, TPA promoter); assay type: in vivo; conditions: i.p.
[1] = prior art / general statement; cited from earlier work
[2] = 13-cis-retinoic acid 50 mg/kg (dose from text), 10 weeks monitoring

For CC1=C(/C=C/C(C)=C/C=C/C(C)=C\C(=O)O)C(C)(C)CCC1 [13-cis-retinoic acid], which “number and size of papillomas” value (papillomas; 50 mg/kg, 10 weeks) is on record?
Its value is “inactive”.

And the “Tumor Burden (mean tumor size per mouse)” value (papillomas; [2])?
The value was 6.8 mm^3.

What about the “Tumor Incidence (% of mice with tumors)” value (papillomas; [2]) of the same compound?
The value was 80%.

What about the “liver toxicity” value [1] of the same compound?
Its value is “adverse side-effects on long-term use such as liver toxicity”.
